# Measurements published in patent US20080318970A1, “Treatment of Infectious Diseases” (priority 2004, published 2008).
# Key:
# [1] = test system: S. aureus O11; test: Checkerboard combination study (FIC index); format: cell-based, Staphylococcus aureus; conditions: anti-infective agent Dicloxacillin; isolate susceptible (S)
# Method: Staphylococcus aureus O11. Clinical isolate resistant to penicillin. Susceptible to methicillin, tetracycline, beta-lactams, fluoroquinolones, chloramphenicol and aminoglycosides.
# (§1) The synergistic effect was studied by checkerboard combination studies exposing cells to 0-64 μg/ml anti-infective agent in the absence or presence of trans-flupenthixol, cis-flupenthixol or trans-clopenthixol. Each experiment was repeated in tripleduplicate. MIC values represent the mean values of two separate experiments,
# (§2) A log phase culture of bacteria was diluted with fresh pre-warmed medium and adjusted to a defined OD at 600 nm in order to give a final concentration of 1×10^4 bacteria/ml medium in each well. Each chemosensitising compound was added to the bacterial culture in the wells in two-fold dilutions in order to give final concentrations ranging from 0 to 8 μg/ml. Anti-infective agent was added to the bacterial culture in the wells in two-fold dilutions in order to give final concentrations ranging from 0 to 64 μg/ml Trays were incubated at 37° C. for 16 h. Wells were assessed visually for growth. The Fractional Inhibitory Concentration (FIC) was calculated for each anti-infective agent alone and in combination with trans-flupenthixol, cis-flupenthixol or trans-clopenthixol. The following formulae were used to calculate the FIC index:
# (§3) FIC=FICchemosensitising compound+FICanti-infective agent
# (§4) FICchemosensitising compound=(MICchemosensitising compound+anti-infective agent)/(MICchemosensitising compound)
# (§5) FICanti-infective agent=(MICanti-infective agent+chemosensitising compound/(MICanti-Infective agent)
# (§6) Synergy was defined as a FIC index of <0.5.
# [2] = test system: Enterococcus faecalis BG-029; test: MIC by microdilution test (NCCLS); format: cell-based; conditions: clinical isolate from human urine, resistant to ciprofloxacin
# Method: A clinical isolate of Enterococcus faecalis BG-029 from human urine was used.
# The MICs were determined by the microdilution test according to the NCCLS Guidelines.
# [3] = test system: E. faecalis F84; test: Checkerboard combination study (FIC index); format: cell-based, Enterococcus faecalis; conditions: MDR isolate
# Method: Enterococcus faecalis, F84. A multidrug resistant clinical isolate.
# as §1
# as §2, with “Each chemosensitising compound was added to the bacterial culture in the wells in two-fold dilutions in order to give final concentrations ranging from 0 to 8 μg/ml.” left out
# as §3, §4, §5, §6
# [4] = test system: E. coli, LN 3164; test: MIC susceptibility test, microdilution broth method (NCCLS), chemosensitising compound alone; format: cell-based; conditions: 37° C., 16 h
# Method: Bacteria were sub-cultured on Mueller-Hinton agar plates and incubated over night at 37° C. Pre-warmed Mueller-Hinton broth was inoculated with colonies from the plate and incubated for approximately three hours to achieve a log phase culture. The log phase culture of bacteria was diluted with fresh pre-warmed medium and adjusted to a defined Optical Density (OD) at 600 nm in order to give a final assay concentration of 1×10^4 bacteria/ml medium.
# Cell growth was tested using the MIC susceptibility tests by use of the microdilution broth method in accordance to the NCCLS Guidelines (NCCLS Guidelines, Methods for Dilution Antimicrobial Susceptibility Tests for Bacteria That Grow Aerobically; Approved Standard, Sixth Edition, Volume 23; Number 2). A 100% Mueller-Hinton broth and a bacterial concentration of 1×10^4/ml were used.
# A log phase culture of bacteria was diluted with fresh pre-warmed medium and adjusted to a defined OD at 600 nm in order to give a final concentration of 1×10^4 bacteria/ml medium in each well. Each chemosensitising compound was added to the bacterial culture in the wells in two-fold dilutions in order to give final concentrations ranging from 8 to 500 μg/ml. Trays were incubated at 37° C. for 16 h. Minimal Inhibitory Concentration, (MIC) is defined as the lowest inhibitory concentration showing no visible growth according to the NCCLS Guidelines.
# [5] = test system: uninfected MT4 cells; test: Cytotoxic effect in uninfected MT4 cultures; format: cell-based
# Method: Compounds were examined for possible antiviral activity against strain 111B of HIV-1 using MT4 cells as target cells. MT4 cells were incubated with virus (0.005 MOI) and growth medium containing the test dilutions of compound(s) for six days in parallel with virus-infected and uninfected control cultures without compound added. Expression of HIV in the cultures was indirectly quantified using the MTT assay as previously described. Compounds mediating less than 30% reduction of HIV expression were considered without biological activity. Compounds were tested in parallel for cytotoxic effect in uninfected MT4 cultures containing the test dilutions of compound as described above. Cultures for test of both antiviral activity and cytotoxic effect were set up in tripleduplicates, […] per culture in micro titre plates.
# CC50 is defined as the inhibitory concentration that reduces cellular growth or viability of uninfected cells by 50%.
# [6] = test system: Enterococcus faecalis BG-029; test: Mouse peritonitis model, bacterial counts in peritoneal fluid; format: in vivo, NMRI mice; conditions: neutropenic mice; subcutaneous; 6 h; ciprofloxacin 12.5 mg per mouse, trans-clopenthixol 5 mg per kg, alone or combined
# Method: Female NMRI mice (age, approximately 6 to 8 weeks; weight, 30±2 g) were used for the mouse […] peritonitis model (as described below). Bacterial suspensions were prepared from fresh overnight cultures (made from frozen stock cultures) on 5% blood agar plates as described above. […] The size of the inoculum was determined by viability counting on 5% blood agar. Neutropenia was introduced by pretreating the mice with cyclophosphamide (6 mg daily for three days). […] Inoculated untreated control mice were included in all trials. […] After the mice were killed, peritoneal washes were performed by injecting 2 ml of sterile saline intraperitoneally, followed by massage of the abdomen and then opening of the peritoneum to collect the fluid.
# [7] = test system: P. aeruginosa 432b; test: Checkerboard combination study (FIC index); format: cell-based; conditions: isolate resistant (R)
# Method: P. aeruginosa 432b. Clinical multidrug resistant isolate. Resistant to tetracycline, beta-lactams, fluoroquinolones, and aminoglycosides. Beta-lactamase producing, changes in Penicillin Binding Proteins and changes in Outer Membrane Proteins.
# as §1, §2, §3, §4, §5, §6
smiles,measurement,setting,value
OCCN1CCN(CC/C=C2\c3ccccc3Sc3ccc(Cl)cc32)CC1 [trans-clopenthixol],FIC index,[1],0.25
same,MIC,[2],6 µg/mL
same,FIC index,[3]; anti-infective agent Dicloxacillin,0.03
same,FIC index,[3]; anti-infective agent Vanomycin,0.06
same,MIC,[4],16 µg/mL
same,cytotoxic effect (in words),"[5]; alone, at the concentrations used",no antiviral or cytotoxic effect
same,CC50,"[5]; compound alone, uninfected MT4",> 3 µM
same,bactericidal activity in mouse peritoneum (in words),[6],did not affect the bacteria
same,FIC index,[7]; anti-infective agent Ciprofloxacin,0.008
same,FIC index,[7]; anti-infective agent Gentamicin,0.032
same,FIC index,[7]; anti-infective agent Piperacillin,0.063
